# PubChem BioAssay AID1963846 (Molecular Pharmacology Branch, DTP, NCI, 2024)
# Test system: 454973-116-R2-J3-PDC complex spheroid viability
# Assay: Anticancer human tumor 454973-116-R2-J3-PDC patient-derived pancreatic carcinoma cell line growth inhibition [POLQ]
# Conditions: for IC50: curve of first compound; for viability, T/C: stronger effect = lower value
# Summary of the method: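 Growth inhibition in 3D: complex spheroids (tumor PDC, HUVEC, MSC) treated with POLQ inhibitor combinations; where Cmax unknown, highest tested concentration 10 microM, except SN-38 at 1 microM.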
# [1] = second compound 0.0316 µM, first compound 0.0316 µM
# [2] = second compound 0.0316 µM, first compound 0.1 µM
# [3] = second compound 0.1 µM, first compound 0.0316 µM
# [4] = second compound 0.1 µM, first compound 0.1 µM
# [5] = second compound 0.316 µM, first compound 0.0316 µM
# [6] = second compound 0.316 µM, first compound 0.1 µM
# [7] = second compound 1 µM, first compound 0.0316 µM
# [8] = second compound 1 µM, first compound 0.1 µM
# [9] = second compound 3.16 µM, first compound 0.0316 µM
# [10] = second compound 3.16 µM, first compound 0.1 µM
# [11] = second compound 10 µM, first compound 0.0316 µM
# [12] = second compound 10 µM, first compound 0.1 µM
# [13] = second compound 0.0316 µM, first compound 0.316 µM
# [14] = second compound 0.0316 µM, first compound 1 µM
# [15] = second compound 0.0316 µM, first compound 3.16 µM
# [16] = second compound 0.0316 µM, first compound 10 µM
# [17] = second compound 0.1 µM, first compound 0.316 µM
# [18] = second compound 0.1 µM, first compound 1 µM
# [19] = second compound 0.1 µM, first compound 3.16 µM
# [20] = second compound 0.1 µM, first compound 10 µM
# [21] = second compound 0.316 µM, first compound 0.316 µM
# [22] = second compound 0.316 µM, first compound 1 µM
# [23] = second compound 0.316 µM, first compound 3.16 µM
# [24] = second compound 0.316 µM, first compound 10 µM
# [25] = second compound 1 µM, first compound 0.316 µM
# [26] = second compound 1 µM, first compound 1 µM
# [27] = second compound 1 µM, first compound 3.16 µM
# [28] = second compound 1 µM, first compound 10 µM
# [29] = second compound 3.16 µM, first compound 0.316 µM
# [30] = second compound 3.16 µM, first compound 1 µM
# [31] = second compound 3.16 µM, first compound 3.16 µM
# [32] = second compound 3.16 µM, first compound 10 µM
# [33] = second compound 10 µM, first compound 0.316 µM
# [34] = second compound 10 µM, first compound 1 µM
# [35] = second compound 10 µM, first compound 3.16 µM
# [36] = second compound 10 µM, first compound 10 µM
# 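Further: spheroids exposed to drugs for seven days before measurement.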
# 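Wherever viability, T/C is given: percent viability relative to DMSO vehicle control wells taken as 100%.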
compound,measurement,setting,value
CC[C@@]1(O)C(=O)OCc2c1cc1n(c2=O)Cc2cc3c(CN(C)C)c(O)ccc3nc2-1 + Nc1ccc(C#CCN(C(=O)Cc2ncc(C(F)(F)F)cc2C(F)(F)F)c2ccc(F)cc2)nn1,IC50,second compound 0.0316 µM,0.0157 µM
same,IC50,second compound 0.1 µM,0.0158 µM
same,IC50,second compound 0.316 µM,0.015 µM
same,IC50,second compound 1 µM,0.0156 µM
same,IC50,second compound 3.16 µM,0.0161 µM
same,IC50,second compound 10 µM,0.0172 µM
same,"viability, T/C","second compound 0.0316 µM, first compound 0.000316 µM",105%
same,"viability, T/C","second compound 0.0316 µM, first compound 0.001 µM",106%
same,"viability, T/C","second compound 0.0316 µM, first compound 0.00316 µM",98.9%
same,"viability, T/C","second compound 0.0316 µM, first compound 0.01 µM",73.7%
same,"viability, T/C",[1],13.2%
same,"viability, T/C",[2],10.1%
same,"viability, T/C","second compound 0.1 µM, first compound 0.000316 µM",107%
same,"viability, T/C","second compound 0.1 µM, first compound 0.001 µM",104%
same,"viability, T/C","second compound 0.1 µM, first compound 0.00316 µM",97.3%
same,"viability, T/C","second compound 0.1 µM, first compound 0.01 µM",73.2%
same,"viability, T/C",[3],14.2%
same,"viability, T/C",[4],10.4%
same,"viability, T/C","second compound 0.316 µM, first compound 0.000316 µM",106%
same,"viability, T/C","second compound 0.316 µM, first compound 0.001 µM",102%
same,"viability, T/C","second compound 0.316 µM, first compound 0.00316 µM",107%
same,"viability, T/C","second compound 0.316 µM, first compound 0.01 µM",71.2%
same,"viability, T/C",[5],10.7%
same,"viability, T/C",[6],12.3%
same,"viability, T/C","second compound 1 µM, first compound 0.000316 µM",111%
same,"viability, T/C","second compound 1 µM, first compound 0.001 µM",110%
same,"viability, T/C","second compound 1 µM, first compound 0.00316 µM",94.5%
same,"viability, T/C","second compound 1 µM, first compound 0.01 µM",73.2%
same,"viability, T/C",[7],13.2%
same,"viability, T/C",[8],12.3%
same,"viability, T/C","second compound 3.16 µM, first compound 0.000316 µM",111%
same,"viability, T/C","second compound 3.16 µM, first compound 0.001 µM",113%
same,"viability, T/C","second compound 3.16 µM, first compound 0.00316 µM",98.7%
same,"viability, T/C","second compound 3.16 µM, first compound 0.01 µM",76.5%
same,"viability, T/C",[9],11.9%
same,"viability, T/C",[10],10.3%
same,"viability, T/C","second compound 10 µM, first compound 0.000316 µM",122%
same,"viability, T/C","second compound 10 µM, first compound 0.001 µM",110%
same,"viability, T/C","second compound 10 µM, first compound 0.00316 µM",104%
same,"viability, T/C","second compound 10 µM, first compound 0.01 µM",86.1%
same,"viability, T/C",[11],8.55%
same,"viability, T/C",[12],9.22%
CCCS(=O)(=O)Nc1ccc(F)c(C(=O)c2c[nH]c3ncc(-c4ccc(Cl)cc4)cc23)c1F + Cc1cccc(N(C)C(=O)C2C(O)CCN2c2nc(C)cc(C(F)(F)F)c2C#N)c1,IC50,second compound 0.0316 µM,8.18 µM
same,IC50,second compound 0.1 µM,8.77 µM
same,IC50,second compound 0.316 µM,8.92 µM
same,IC50,second compound 1 µM,8.4 µM
same,IC50,second compound 3.16 µM,8.13 µM
same,IC50,second compound 10 µM,6.95 µM
same,"viability, T/C",[1],108%
same,"viability, T/C",[2],116%
same,"viability, T/C",[13],112%
same,"viability, T/C",[14],118%
same,"viability, T/C",[15],113%
same,"viability, T/C",[16],36.7%
same,"viability, T/C",[3],105%
same,"viability, T/C",[4],111%
same,"viability, T/C",[17],115%
same,"viability, T/C",[18],122%
same,"viability, T/C",[19],111%
same,"viability, T/C",[20],42.1%
same,"viability, T/C",[5],108%
same,"viability, T/C",[6],116%
same,"viability, T/C",[21],118%
same,"viability, T/C",[22],113%
same,"viability, T/C",[23],123%
same,"viability, T/C",[24],42.7%
same,"viability, T/C",[7],136%
same,"viability, T/C",[8],110%
same,"viability, T/C",[25],114%
same,"viability, T/C",[26],111%
same,"viability, T/C",[27],126%
same,"viability, T/C",[28],37.3%
same,"viability, T/C",[9],117%
same,"viability, T/C",[10],110%
same,"viability, T/C",[29],104%
same,"viability, T/C",[30],105%
same,"viability, T/C",[31],115%
same,"viability, T/C",[32],36.8%
same,"viability, T/C",[11],120%
same,"viability, T/C",[12],112%
same,"viability, T/C",[33],110%
same,"viability, T/C",[34],111%
same,"viability, T/C",[35],118%
same,"viability, T/C",[36],20.3%
CC(C)n1c(=O)n(C)c2cnc3cc(F)c(-c4ccc(OCCCN5CCCCC5)nc4)cc3c21 + Cc1cccc(N(C)C(=O)C2C(O)CCN2c2nc(C)cc(C(F)(F)F)c2C#N)c1,IC50,second compound 0.0316 µM,> 10 µM
same,IC50,second compound 0.1 µM,> 10 µM
same,IC50,second compound 0.316 µM,> 10 µM
same,IC50,second compound 1 µM,> 10 µM
same,IC50,second compound 3.16 µM,> 10 µM
same,IC50,second compound 10 µM,> 10 µM
same,"viability, T/C",[1],97.4%
same,"viability, T/C",[2],96.4%
same,"viability, T/C",[13],103%
same,"viability, T/C",[14],99.7%
same,"viability, T/C",[15],105%
same,"viability, T/C",[16],77.2%
same,"viability, T/C",[3],97.3%
same,"viability, T/C",[4],105%
same,"viability, T/C",[17],101%
same,"viability, T/C",[18],113%
same,"viability, T/C",[19],107%
same,"viability, T/C",[20],85%
same,"viability, T/C",[5],105%
same,"viability, T/C",[6],110%
same,"viability, T/C",[21],114%
same,"viability, T/C",[22],104%
same,"viability, T/C",[23],97.1%
same,"viability, T/C",[24],86.8%
same,"viability, T/C",[7],103%
same,"viability, T/C",[8],105%
same,"viability, T/C",[25],110%
same,"viability, T/C",[26],116%
same,"viability, T/C",[27],104%
same,"viability, T/C",[28],87.3%
same,"viability, T/C",[9],109%
same,"viability, T/C",[10],106%
same,"viability, T/C",[29],108%
same,"viability, T/C",[30],99.3%
same,"viability, T/C",[31],101%
same,"viability, T/C",[32],86%
same,"viability, T/C",[11],114%
same,"viability, T/C",[12],110%
same,"viability, T/C",[33],96.6%
same,"viability, T/C",[34],98.6%
same,"viability, T/C",[35],97.3%
same,"viability, T/C",[36],79%
